What was measured:
SNU398 human HCC cells = experiment: AldeRed (Aldefluor) assay in SNU398 cells; type: cell-based
Protocol: The AldeRed assay (EMD Millipore) was performed according to manufacturer's instructions to identify cells with ALDH activity. In brief, single-cell suspensions of Huh7, Huh1, SNU449, SNU398, HEP3B, PLC, Hepa 1-6, Hep55, and AL458A cultured cells or single-cell suspension generated from enzymatic digestion of tumors generated from transplantation of these cells in mice (as indicated in figure legends) were incubated with a fluorescent and non-toxic ALDH substrate (AldeRed 588-A); the fluorescent product accumulates in cells proportional to their ALDH activity. The amount of fluorescence produced is measured by flow cytometry. The ALDH inhibitor diethylaminobenzaldehyde (DEAB, provided with the AldeRed assay kit) was used as a negative control for background fluorescence assessment.
The Aldefluor assay has been used to identify and isolate cells with high ALDH activities. This assay is based on the principle that ALDH can convert the ALDH-substrate, Bodipy-aminoacetaldehyde (BAAA) into Bodipy-aminoacetate (BAA) which is retained inside the cells. BAAA is uncharged and can diffuse freely into intact viable cells, however BAA cannot cross the membrane due to its net negative charge, which makes remain in the cells and the assay buffer prevents efflux of the BAA from the cells. Therefore, the amount of BAA fluorescence in cells is proportional to ALDH activity and can be measured using a flow cytometer. A specific inhibitor of ALDH, diethylaminobenzaldehyde (DEAB), is used for background fluorescence control.

[1] = test system: Calcium Channel L-Type, Phenylalkylamine; experiment: Safetyscreen: Ca channel L-type, phenylalkylamine; type: binding, rat; settings: 10 μM
[2] = target: T1, Serotonin (5-Hydroxytryptamine) 5-HT1B (Homo sapiens, UniProt P28222); experiment: Safetyscreen: 5-HT1B; type: binding; settings: read-out: % Inh. Serotonin (5-Hydroxytryptamine) 5-HT1B
T1 construct: Eurofins Cereps Panlabs (contract panel)
T1 sequence (P28222 whole entry): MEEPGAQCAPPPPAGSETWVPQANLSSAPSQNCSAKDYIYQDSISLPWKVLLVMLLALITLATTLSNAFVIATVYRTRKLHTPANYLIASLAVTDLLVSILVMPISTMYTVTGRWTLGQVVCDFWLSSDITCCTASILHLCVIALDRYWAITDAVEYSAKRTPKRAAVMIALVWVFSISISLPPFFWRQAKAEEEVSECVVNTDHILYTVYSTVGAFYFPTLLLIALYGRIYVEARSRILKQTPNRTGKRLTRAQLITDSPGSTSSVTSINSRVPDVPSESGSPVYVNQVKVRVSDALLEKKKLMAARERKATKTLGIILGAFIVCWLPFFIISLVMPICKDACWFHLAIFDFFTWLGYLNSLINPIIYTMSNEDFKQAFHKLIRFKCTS

Chemokine CCR1 = target: T2, Chemokine CCR1 (Homo sapiens, UniProt P32246); experiment: Safetyscreen: CCR1; type: binding; settings: read-out: % Inh. Chemokine CCR1
T2 construct: purchased Eurofins Cereps Panlabs
T2 sequence (P32246 whole entry): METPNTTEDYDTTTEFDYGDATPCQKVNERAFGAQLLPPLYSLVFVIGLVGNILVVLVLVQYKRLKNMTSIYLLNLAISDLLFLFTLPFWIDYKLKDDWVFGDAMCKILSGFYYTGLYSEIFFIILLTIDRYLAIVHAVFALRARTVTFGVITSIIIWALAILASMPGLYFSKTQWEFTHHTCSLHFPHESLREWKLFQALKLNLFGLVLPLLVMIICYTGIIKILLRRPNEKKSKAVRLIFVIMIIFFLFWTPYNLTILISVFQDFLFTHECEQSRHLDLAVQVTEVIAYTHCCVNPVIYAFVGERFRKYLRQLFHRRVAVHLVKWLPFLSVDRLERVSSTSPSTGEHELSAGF

Glutamate, NMDA, Agonism = experiment: Safetyscreen: NMDA, Agonism; type: binding, rat; settings: 10 μM
Hepa 1-6 tumors = Hepa 1-6 tumors in mice; type: in vivo, mouse; settings: Hepa 1-6 in C57BL6/J mice treated with anti-CD3; i.p., 20 mg/kg every day
Protocol: FIGS. 28A-28G: C99 inhibits murine RALDH1 and suppresses murine HCC growth. FIG. 28A: AldeRed assay was performed on Hepa1-6 (murine HCC, left graph) and SNU398 (human HCC, right graph) cells with or without different concentration of C99 (x-axis). Shown is the percentage of AldeRed-positive cells (y-axis) after 24 hours exposure to C99. Murine RALDH1 is sensitive to C99. FIG. 28B: Hepa1-6 cells were treated with different concentrations of C99 in vitro and the number of viable cells were counted at different time points. […] FIG. 28C: C57BL6/J mice were implanted subcutaneously with Hepa1-6 cells and the tumor-bearing mice. To prevent spontaneous rejection of this cell line, mice were treated with anti-CD3. Once the tumors reached around 50 mm^3 size, mice were treated with C86 or C99 (i.p., 20 mg/kg) every day. […] C99, but not C86, suppresses murine HCC growth. Two independent experiments were performed with at least three replicates per experimental group. Unpaired t test, two-tailed. FIG. 28D: Tumors in (FIG. 28C) were harvested at endpoint, single-cell suspension generated, and AldeRed assay was performed along with surface staining with immune cell markers. Shown is the percentage of AldeRed-positive cells in nonleukocytes (CD45 negative, mostly tumor cells) under the different treatment conditions. Two independent experiments were performed with at least three replicates per experimental group. Unpaired t test, two-tailed. FIG. 28E: FCS base frequency of Macrophages (F4/80^+ cells) within CD45^+ leukocytes in tumor tissues from experiment outlined in (FIGS. 28C-28D). Two independent experiments were performed with at least three replicates per experimental group. Unpaired t test, two-tailed. FIG. 28F: Hepa1-6 tumor-bearing NU/J mice were treated with chlodronate liposomes (CloLipo) and/or C86/C99. CloLipo treatment suppresses tumor growth and renders tumors insensitive to C99. Two independent experiments were performed with at least three replicates per experimental group. Unpaired t test, two-tailed. FIG. 28G: The murine fibrosarcoma (FS) cell line was implanted subcutaneously into C57BL6/J mice. Mice were treated with 25 mg/kg of C-99 or vehicle everyday starting one day after tumor cell transplantation. *, P<0.05; **, P<0.01; ***, P<0.001; ns, not significant.
Cultured Huh7, Huh1, Hepa 1-6, Hep55, and FS (as indicated in figure legends) tumor cells were detached using 0.25% trypsin (Gibco, catalog #25200056), washed once with 1×PBS, and counted before implantation. 3~6×10^6 tumor cells were implanted subcutaneously (s.c.) into shaved flanks of recipient mice. Tumor dimensions were measured using a caliper starting at the day indicated in the accompanying figure legend and every two to three days thereafter; volume was calculated by using formula Length*Width^2/2. Tumor volumes of 2,000 mm^3, tumor length of 2 cm or tumor ulceration were used as endpoints for survival analyses.
To deplete T cells, 200 μg of mouse CD3-specific antibody (clone 17A2) was administered i.p. starting three days before tumor implantation and repeated every three to four days until mouse sacrifice. To deplete macrophages, 200 μL of clodronate liposome (CloLipo) or PBS-liposome (CtrlLipo) (both Liposoma) was administered i.p. starting three days prior to tumor implantation and repeated every four days until mouse sacrifice. Macrophage depletion efficacy in spleen and within tumors was confirmed by flow cytometry using canonical macrophage marker F4/80. […]

Opiate μ(OP3, MOP) = target: T3, Opiate μ(OP3, MOP) (Homo sapiens, UniProt P35372); experiment: Safetyscreen: Opiate μ; type: binding; settings: read-out: % Inh. Opiate μ(OP3, MOP)
T3 construct: Eurofins Cereps Panlabs (contract panel)
T3 sequence (P35372 whole entry): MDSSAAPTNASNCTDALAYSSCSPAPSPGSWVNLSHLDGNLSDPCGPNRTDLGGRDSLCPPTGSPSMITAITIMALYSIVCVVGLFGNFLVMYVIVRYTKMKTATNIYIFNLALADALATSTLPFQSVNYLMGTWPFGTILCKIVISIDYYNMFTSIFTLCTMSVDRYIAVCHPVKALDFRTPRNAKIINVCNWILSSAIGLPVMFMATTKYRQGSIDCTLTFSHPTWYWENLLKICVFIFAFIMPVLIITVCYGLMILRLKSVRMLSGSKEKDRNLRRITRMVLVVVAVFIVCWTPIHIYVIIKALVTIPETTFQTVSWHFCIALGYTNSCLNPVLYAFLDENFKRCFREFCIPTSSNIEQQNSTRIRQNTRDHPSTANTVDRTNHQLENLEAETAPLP

Cyclooxygenase COX-1 = target: T4, Cyclooxygenase COX-1 (Homo sapiens, UniProt P23219); experiment: Safetyscreen: COX-1; type: biochemical; settings: read-out: % Inh. Cyclooxygenase COX-1
T4 construct: Eurofins Cerep Panlabs (contract panel)
T4 sequence (P23219 24-599): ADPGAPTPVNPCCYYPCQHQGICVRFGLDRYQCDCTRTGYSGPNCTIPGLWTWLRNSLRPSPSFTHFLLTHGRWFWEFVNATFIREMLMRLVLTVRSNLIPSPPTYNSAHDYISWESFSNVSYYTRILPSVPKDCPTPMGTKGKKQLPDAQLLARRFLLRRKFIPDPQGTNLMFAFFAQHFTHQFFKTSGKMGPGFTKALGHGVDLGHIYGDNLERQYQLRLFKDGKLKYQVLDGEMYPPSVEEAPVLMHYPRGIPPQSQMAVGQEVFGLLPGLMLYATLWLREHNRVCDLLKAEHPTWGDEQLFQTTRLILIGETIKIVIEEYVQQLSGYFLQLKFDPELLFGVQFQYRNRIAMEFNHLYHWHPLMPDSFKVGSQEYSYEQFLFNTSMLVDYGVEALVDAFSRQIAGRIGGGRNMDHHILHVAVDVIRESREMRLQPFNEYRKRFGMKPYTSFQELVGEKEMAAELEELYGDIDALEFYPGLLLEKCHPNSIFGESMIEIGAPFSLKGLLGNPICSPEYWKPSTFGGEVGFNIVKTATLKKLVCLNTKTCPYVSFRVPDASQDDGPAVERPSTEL

[3] = target: T5, Transporter, Norepinephrine (NET) (Homo sapiens, UniProt P23975); experiment: Safetyscreen: NET; type: binding; settings: read-out: % Inh. Transporter, Norepinephrine (NET)
T5 construct: purchased Eurofins Cereps Panlabs
T5 sequence (P23975 whole entry): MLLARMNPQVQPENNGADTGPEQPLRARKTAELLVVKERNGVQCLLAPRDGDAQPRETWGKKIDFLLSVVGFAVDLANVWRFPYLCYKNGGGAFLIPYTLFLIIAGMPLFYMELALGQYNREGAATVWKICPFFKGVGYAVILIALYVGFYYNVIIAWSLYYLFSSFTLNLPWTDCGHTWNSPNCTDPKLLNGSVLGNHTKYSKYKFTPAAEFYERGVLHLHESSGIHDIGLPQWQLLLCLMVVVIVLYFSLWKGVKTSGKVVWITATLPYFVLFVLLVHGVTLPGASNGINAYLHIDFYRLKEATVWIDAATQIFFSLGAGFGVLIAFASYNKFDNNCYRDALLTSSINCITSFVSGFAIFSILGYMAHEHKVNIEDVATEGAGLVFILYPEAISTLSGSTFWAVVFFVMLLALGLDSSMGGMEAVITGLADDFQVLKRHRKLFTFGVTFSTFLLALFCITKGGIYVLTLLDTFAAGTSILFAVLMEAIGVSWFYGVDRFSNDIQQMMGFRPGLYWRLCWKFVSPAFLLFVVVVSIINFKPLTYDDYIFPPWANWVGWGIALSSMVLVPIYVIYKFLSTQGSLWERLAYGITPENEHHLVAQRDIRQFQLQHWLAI

Chemokine CXCR2 (IL-8RB) = target: T6, Chemokine CXCR2 (IL-8RB) (Homo sapiens, UniProt P25025); experiment: Safetyscreen: CXCR2; type: binding; settings: read-out: % Inh. Chemokine CXCR2 (IL-8RB)
T6 construct: purchased Eurofins Cereps Panlabs
T6 sequence (P25025 whole entry): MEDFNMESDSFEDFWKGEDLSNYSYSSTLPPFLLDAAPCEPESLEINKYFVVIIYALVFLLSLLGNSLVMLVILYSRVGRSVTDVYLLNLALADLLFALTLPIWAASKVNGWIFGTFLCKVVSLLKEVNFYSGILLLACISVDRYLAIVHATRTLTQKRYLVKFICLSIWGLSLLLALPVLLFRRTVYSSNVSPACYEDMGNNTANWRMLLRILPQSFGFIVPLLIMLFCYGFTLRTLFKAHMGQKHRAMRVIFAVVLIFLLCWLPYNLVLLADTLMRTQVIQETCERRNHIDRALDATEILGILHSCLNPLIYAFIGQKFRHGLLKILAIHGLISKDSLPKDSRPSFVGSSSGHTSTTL

Question: Which “RALDH activity, Aldered assay, in HCC cells” value (SNU398 human HCC cells; FIGS. 7-8) does the source give for `CS(=O)(=O)N1CCN(C(=O)c2cnc3ccc(F)cc3c2N2CCC(C#N)(c3ccccc3)CC2)CC1` [Compound C-86, 1-(6-fluoro-3-(4-(methylsulfonyl)piperazine-1-carbonyl)quinolin-4-yl)-4-phenylpiperidine-4-carbonitrile] here?
Answer: significantly reduced RALDH activity

Question: What about the “RALDH activity as detected by Aldered (Aldefluor) assay” value (SNU398 human HCC cells; SNU398 cells in vitro, 100 nM, DMSO control) of the same compound?
Answer: abrogated

Question: And the “% Inh. Calcium Channel L-Type, Phenylalkylamine” value [1]?
Answer: 21%

Question: And the inhibition at 10 µM [2]?
Answer: -21%

Question: What about the inhibition at 10 µM (Chemokine CCR1) of the same compound?
Answer: 18%

Question: And the “% Inh. Glutamate, NMDA, Agonism” value (Glutamate, NMDA, Agonism)?
Answer: 2%

Question: And the “tumor growth in vivo” value (Hepa 1-6 tumors)?
Answer: did not suppress

Question: What about the inhibition at 10 µM (Opiate μ(OP3, MOP)) of the same compound?
Answer: 19%

Question: What about the inhibition at 10 µM (Cyclooxygenase COX-1) of the same compound?
Answer: 6%

Question: What about the inhibition at 10 µM [3] of the same compound?
Answer: 35%

Question: And the inhibition at 10 µM (Chemokine CXCR2 (IL-8RB))?
Answer: 8%

— patent US20260248799A1, “COMBINATIONS OF RETINALDEHYDE DEHYDROGENASE 1 (RALDH1) INHIBITORS AND IMMUNOSTIMULATORS AND METHODS USING SAME” (The Trustees of the University of Pennsylvania, priority 2023, published 2026)
